Data from article PMC3733996 (Bioorganic & medicinal chemistry letters, 2013).

Target: serotonin transporter (SERT) (Rattus norvegicus, UniProt P31652)
Assay: Displacement of [3H]citalopram from serotonin transporter in rat brain tissue
Format: binding
Settings: ratio of Ki DAT / Ki SERT

Sequence of serotonin transporter (SERT) (P31652 whole entry): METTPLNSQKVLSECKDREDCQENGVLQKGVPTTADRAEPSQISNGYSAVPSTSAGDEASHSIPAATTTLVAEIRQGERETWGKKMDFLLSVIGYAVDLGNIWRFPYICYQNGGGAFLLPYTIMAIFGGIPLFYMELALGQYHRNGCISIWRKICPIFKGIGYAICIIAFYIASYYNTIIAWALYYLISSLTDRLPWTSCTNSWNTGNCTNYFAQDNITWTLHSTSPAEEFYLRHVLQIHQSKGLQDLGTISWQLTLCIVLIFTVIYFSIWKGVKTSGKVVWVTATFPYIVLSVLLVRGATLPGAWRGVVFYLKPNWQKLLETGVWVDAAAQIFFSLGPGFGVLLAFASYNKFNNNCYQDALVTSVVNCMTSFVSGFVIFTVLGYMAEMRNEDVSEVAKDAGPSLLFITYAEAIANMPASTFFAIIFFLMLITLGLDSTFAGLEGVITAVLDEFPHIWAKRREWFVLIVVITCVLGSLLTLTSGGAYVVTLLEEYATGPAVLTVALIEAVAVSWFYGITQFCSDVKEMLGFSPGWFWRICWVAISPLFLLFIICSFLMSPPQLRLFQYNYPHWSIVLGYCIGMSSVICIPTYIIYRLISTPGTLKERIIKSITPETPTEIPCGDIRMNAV

SMILES | DAT/SERT
Cl.Clc1ccc(COC2(c3ccc(Cl)cc3)CNC2)cc1 [6e] | 1,100
Cl.Clc1ccc(COC2(c3ccc(Cl)c(Cl)c3)CNC2)cc1 [6h] | 1,000
